{"source": "paper PMC5627750", "about": "(International Journal of Nanomedicine, 2017)", "key": {"[1]": {"type": "physicochemical", "details": "pH 7.4"}, "MI rat models": {"tested_on": "MI rat models", "set-up": "species or system Sprague-Dawley rats", "details": "in vivo, iv, 10 mg/kg"}, "in vivo": {"assay": "in vivo", "details": "male, Sprague-Dawley, rat, iv, 10 mg"}, "[2]": {"details": "male, Sprague-Dawley, rat, in vivo, 10 mg/kg"}}, "data": [{"smiles": "COc1cc2c(c(OC)c1OC)-c1c(cc3c(c1OC)OCO3)CC(C)C(C)C2", "note": "(centres unmarked) [Sch B solution, Schisandrin B]", "values": [{"measurement": "time to complete release of Sch B", "setting": "[1]", "result": "≤ 2", "unit": "h"}, {"measurement": "infarct size", "setting": "MI rat models", "result": 36.5, "unit": "%"}, {"measurement": "AUC(0-inf)", "setting": "in vivo", "result": "13700 ± 1540", "unit": "ng·h/mL"}, {"measurement": "AUC(0-t)", "setting": "in vivo", "result": "12400 ± 1310", "unit": "ng·h/mL"}, {"measurement": "Vd", "setting": "in vivo", "result": "18.5 ± 2.61", "unit": "L/kg"}, {"measurement": "clearance", "setting": "in vivo", "result": 65.7, "unit": "mL/min/kg"}, {"measurement": "half-life", "setting": "in vivo", "result": "55.8 ± 5.4", "unit": "min"}, {"measurement": "time until cleared from the circulation", "setting": "[2]", "result": "≤ 4", "unit": "h"}]}]}
